In patent publication US20020137706A1, “Regulated growth factor delivery for engineered peripheral nerve” (priority 2000, published 2002):

Legend:
[1] = system: PC-12 cells; experiment: Bioactivity assay of released NGF, PC-12 differentiation; format: cell-based; settings: 4 days culture in supernatant of MurA-induced transfected hDFBs; p≦0.002
Procedure: PC-12 cells were obtained from ATCC (CRL-1721). PC-12 cells were maintained in F12k supplemented with 15% horse serum (Sigma, St. Louis, Mo.), 2.5% FBS, and penicillin-streptomycin-glutamine mixture (Gibco). For the NGF bioactivity assay, PC-12 cells were seeded at 10^2 cells/750 μL in 12-well plates.
NGF Bioactivity. Bioactivity assay of released NGF was assessed using PC-12 cells with their differentiation as the endpoint. PC-12 cells were incubated with PC.12 culture media (control) or media supernatants from transfected hDFBs in the presence of MurA (i.e., media with released NGF). Briefly, hDFBs were cultured and exposed to 3 μM Muristerone for 3 days in 12-well plates.
The media, theoretically with containing NGF released from transfected hDFBs, was then removed and used to culture PC-12 cells in 12-well plates. After 4 days, random images were digitized of each well and the number of differentiated and undifferentiated Data are reported as fraction of PC-12 cells that were differentiated.

[2] = system: right sciatic nerve defect; settings: rat, in vivo
Procedure: Surgical Technique. Twenty-one Sprague Dawley (250 gms) rats with a right sciatic nerve defect were implanted with the 12 mm PLLA conduits. […] Briefly the animals were anesthetized and maintained by a 0.4 cc intramuscular injection of a premixed solution containing 64 mg/ml ketamine HCL (Keta-Sthetic™ Boehringer Ingelheim, St Joseph, Mo.), 3.6 mg/ml xylazine (Rompun™ Miles Inc., Shawnee Mission, Kans.), and 0.07 mg/ml atropine sulfate (Elkins-Sinn Inc., Cherry Hill, N.J.). The skin from the clipped lateral thigh was scrubbed in a routine fashion with antiseptic solution. The incision extended from the greater trochanter to the midcalf distally. The sciatic and posterior tibial nerves were exposed by a muscle splitting incision. […]
The medical and lateral gastrocnemius muscle was harvested at 6 and 16 weeks and weighed in order to assess nerve reinnervation. […] The difference in weight of the containers before and after muscle placement determined the muscle weight.
Histological Assessment. […] Images of the histological sections were digitized using a CCD camera and subsequently analyzed using standard image processing and analysis techniques. […] The number of axons were counted to give the number of axons/mm^2. The area of each axon was determined, summed together, and expressed as area axons/image area to give the nerve fiber density. […]

Substance | PC-12 differentiation versus media alone [1] | inflammatory reaction [2] | neuromas [2]
NGF secreted from hDFBs: nerve growth factor in media supernatants from transfected hDFBs in the presence of MurA | markedly higher levels |  | 
poly (L-Lactic acid) [PLLA conduits] |  | No severe inflammatory reaction could be identified | no neuromas were apparent clinically
